The text below walks through data of PubChem BioAssay (NCI).

What all share (assay): inhibition of tumour cell growth, NCI panel, 48 h
Experiment [1] has as its system K-562 leukemia.
For experiment [2], the system named is HCT-116 colon.
Experiment [3] relates to NCI-H460 lung.
The subject of experiment [4] is HOP-62 NSCLC.
Experiment [5] concerns LOX IMVI melanoma.
Experiment [6] deals with SK-MEL-2 melanoma.
Experiment [7] deals with M14 melanoma.
The subject of experiment [8] is A549 NSCLC.
In experiment [9] the test system is ACHN renal.
The test system of experiment [10] is MALME-3M melanoma.

“And” between values parts separate entries of the source, which are not always exact repeats. Equal values may be shown once.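 1) Cells in 96-well plates. 2) Compound, 48 h, 5 concentrations. 3) Linear interpolation between surrounding doses. 4) Unreached endpoint = highest concentration. GI50 is the concentration that inhibits growth by half. TGI: total growth inhibition.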

In the case of `Cc1[nH]n(C(=O)c2ccc(Cl)cc2)c(=O)c1/C=C1\C(O)=CC(=O)c2ccccc21`, the TGI in experiment [1], in experiment [2], in [3], in [4], in experiment [5] and in experiment [6] was more than 100 µM throughout. Moreover, the TGI in experiment [7], in [8], in experiment [9] and in [10] was more than 100 µM each time.

For the compound `CCOC(=O)c1c(/C=N\Nc2ccccc2)nc2ccccc2c1-c1ccccc1`, the TGI in experiment [1], in [2], in experiment [3], in [4], in experiment [5] and in experiment [6] was more than 100 µM throughout. Besides, the TGI in experiment [7] was more than 100 µM; in experiment [8], more than 100 µM; in experiment [9] it was more than 100 µM; in [10] it was 90.5 µM.

Consider `Nc1nc(N)c(-c2ccccc2)c(C(=O)Nc2nccs2)n1`, for which the TGI in [1], in experiment [2], in [3], in experiment [4], in [5] and in experiment [6] was more than 100 µM in each case. The TGI in [7], in [8], in [9] and in experiment [10] was more than 100 µM in each case.

Consider `O=C(Nc1cccc(C(F)(F)F)c1)Nc1cc(S(=O)(=O)NC2CC2)ccc1-c1ccsc1`, for which the GI50 in experiment [1] was 3.42 µM; in experiment [2], 3.51 µM; in experiment [3], 3.4 µM; in [4] it was 5.11 µM; in experiment [5] it was 4.5 µM; in experiment [6] it was 3.15 µM. The GI50 in experiment [7] is 4.32 µM; in [8] it was 3.68 µM; in experiment [9], 1.83 µM; in experiment [10] it was 3.39 µM. In addition, the TGI in [1] came out at 13.5 µM; in experiment [2], 13.4 µM; in experiment [3] it was 11.6 µM; in experiment [4], 18.5 µM; in experiment [5], 16.9 µM; in experiment [6], 13.7 µM. Besides, the TGI was 18.4 µM in experiment [7], 14.7 µM in [8], 3.61 µM in [9] and 11.1 µM in experiment [10].

As for `COC(=O)/C(=C/c1ccc(OC)cc1)c1cc(OC)c(OC)c(OC)c1`, the TGI in experiment [1] was more than 58.4 µM; in [2], 55.3 µM; in experiment [3], 45.9 µM; in experiment [4], more than 51.2 µM; in [5] it was more than 100 µM; in experiment [6] it was more than 100 µM. Also, the TGI was more than 96.3 µM in experiment [7], more than 100 µM in [8], more than 100 µM in experiment [9] and more than 100 µM in experiment [10].

For the compound `Oc1ccc(/C=N/Nc2nnc(N/N=C/c3ccc(O)cc3O)c3ccccc23)c(O)c1`, the GI50 in experiment [1] was 0.346 µM; in experiment [2], 0.348 µM; in experiment [3], 0.414 µM; in [4] it was 0.509 µM; in experiment [5], 0.277 µM; in experiment [6] it was 0.674 µM. Besides, the GI50 in experiment [7] is 0.358 µM; in experiment [8], 0.67 µM; in experiment [9] it was 0.358 µM; in experiment [10] it was 0.633 µM. The TGI in experiment [2] is 2.16 µM; in experiment [3], 1.76 µM; in experiment [4], 0.793 µM and 2.02 µM; in [5], 0.871 µM and 1.5 µM; in [6] it was 0.623 µM and 2.57 µM; in experiment [7], 1.53 µM. Further, the TGI in experiment [8] was more than 28.7 µM; in [9], 0.422 µM and 3.94 µM; in experiment [10], 4.28 µM.

On to `COc1ccc(S(=O)(=O)NCCCNc2nccc(-c3c(-c4ccc(F)cc4)nc4sccn34)n2)cc1`, for which the GI50 was 2.99 µM in experiment [1]; 4.85 µM in experiment [2]; 4.33 µM in experiment [3]; 18 µM in experiment [4]; 5.53 µM in experiment [5]; 12.4 µM in experiment [6]. Moreover, the GI50 in [7] was 8.98 µM; in experiment [8] it was 4.33 µM; in experiment [9], 2.73 µM; in experiment [10], 5.78 µM. The TGI is more than 100 µM in experiment [1]; more than 100 µM in experiment [2]; more than 100 µM in experiment [3]; more than 100 µM in experiment [4]; more than 100 µM in [5]; 50.3 µM in [6]. In addition, the TGI in experiment [7], in [8], in experiment [9] and in experiment [10] was more than 100 µM each time.

Consider `CC(=O)OCC1OC(OC(C)=O)C(NC#N)C(OC(C)=O)C1OC(C)=O` (stereo not given), for which the TGI in [1], in experiment [2], in experiment [3], in experiment [4], in [5] and in experiment [6] was more than 100 µM throughout. Also, the TGI in experiment [7], in experiment [8], in [9] and in experiment [10] was more than 100 µM in each case.

For the compound `O=C(O)C12C3C4C1C1C2C3C41I` (stereo not given), the TGI in experiment [1], in [2], in experiment [3], in experiment [4], in experiment [5] and in [6] was more than 100 µM each time. Further, the TGI in experiment [7], in experiment [8], in [9] and in experiment [10] was more than 100 µM in each case.

As for `NC1CC(n2ccc(=O)[nH]c2=O)OC1C(O)CO` (stereo not given), the TGI in [1], in experiment [2], in [3], in [4], in experiment [5] and in experiment [6] was more than 100 µM each time. Further, the TGI in experiment [7], in experiment [8], in experiment [9] and in [10] was more than 100 µM in each case.

For `OCCn1c(-c2ccncc2)c(-c2ccc(F)cc2)c2ncccc21`, the GI50 in experiment [1], in experiment [2], in experiment [3], in [4], in [5] and in experiment [6] was more than 25 µM in each case. Moreover, the GI50 is more than 25 µM in experiment [7], more than 25 µM in [8], 24.8 µM in [9] and more than 25 µM in experiment [10]. Further, the TGI in experiment [1], in [2], in experiment [3], in experiment [4], in experiment [5] and in experiment [6] was more than 25 µM each time. The TGI in experiment [7], in experiment [8], in experiment [9] and in experiment [10] was more than 25 µM each time.

For `O=C(Nc1cccc(C(F)(F)F)c1)Nc1ccc(OCc2nnc(-c3ccccc3)o2)c(F)c1`, the GI50 in experiment [1] was 5.12 µM; in [2], 3.02 µM; in experiment [3], 3.61 µM; in [4] it was 3.4 µM; in experiment [5], 4.58 µM; in experiment [6], 7.16 µM. Further, the GI50 in [7] was 7.18 µM; in [8], 6.02 µM; in experiment [9], 2.92 µM; in experiment [10], 3.35 µM. For the same compound, the TGI in experiment [1] was determined as 47.2 µM; in experiment [2], 16.5 µM; in [3], 15.3 µM; in experiment [4], 18 µM; in experiment [5], 25.6 µM; in [6], 25.8 µM. The TGI in [7] worked out at 62.8 µM; in [8], 38.5 µM; in experiment [9], 12.3 µM.

As for `Cc1cc(C2(c3cc(C)c(O)c4ncccc34)OC(=O)c3ccccc32)c2cccnc2c1O`, the TGI in experiment [1] is more than 100 µM; in experiment [2], more than 100 µM; in experiment [3], 0.203 µM; in [4] it was more than 100 µM; in [5], more than 100 µM; in [6], more than 100 µM. In addition, the TGI was 14 µM in experiment [8]; 1.17 µM and 1.45 µM in experiment [9]; more than 100 µM in experiment [10]. Besides, the GI50 is 0.643 µM in experiment [4], 0.117 µM in [6] and 0.0162 µM in [7].

Take `CCOC(=O)Oc1ccc2[nH]c3c(C)cc(N)c(C)c3c2c1`: the TGI in experiment [1], in [2], in [3], in [4], in experiment [5] and in experiment [6] was more than 100 µM in each case. In addition, the TGI in experiment [7], in experiment [8], in experiment [9] and in experiment [10] was more than 100 µM in each case.

`O=C1NC2(CCCCC2)C2=C1CCCCC2`: the TGI in [1], in experiment [2], in experiment [3], in experiment [4], in experiment [5] and in experiment [6] was more than 100 µM each time. Moreover, the TGI in experiment [7], in [8], in experiment [9] and in experiment [10] was more than 100 µM in each case.

With `CC(=O)Nc1ccc(C(=O)COc2cccc(/C=C3\CCc4ccccc4C3=O)c2)cc1`, the GI50 in experiment [1] is 2.8 µM; in experiment [2], 4.09 µM; in experiment [3], 16.1 µM; in [4] it was 24 µM; in [5], 6.59 µM; in experiment [6] it was 14.8 µM. The GI50 is 14.4 µM in experiment [7], 38.1 µM in experiment [8], 21.9 µM in experiment [9] and 15.8 µM in experiment [10]. Further, the TGI turned out to be 12.7 µM in [1]; 17.1 µM in experiment [2]; 37.1 µM in experiment [3]; 60.3 µM in experiment [4]; 25.4 µM in experiment [5]; 65.8 µM in [6]. Also, the TGI in experiment [7] was 34 µM; in [8], more than 100 µM; in [9] it was 78.4 µM; in experiment [10], 39.5 µM.

For the compound `COc1ccc(Cl)cc1Nc1nc(C(F)(F)F)ccc1C(=O)N/N=C/c1ccc(Cl)cc1`, the GI50 is 3.85 µM in experiment [1]; 3.39 µM in [2]; 1.82 µM in [3]; 3.51 µM in [4]; 8.08 µM in experiment [5]; 0.954 µM in experiment [6]. Further, the GI50 in experiment [7] was 3.69 µM; in experiment [8], 37.7 µM; in [9], 6.4 µM; in experiment [10], 1.36 µM. Besides, the TGI in experiment [1] was 40.5 µM; in experiment [2], 19.9 µM; in [3] it was more than 100 µM; in experiment [4] it was 24 µM; in [5], more than 100 µM; in experiment [6], more than 100 µM. The TGI in [7] is more than 100 µM; in experiment [8] it was more than 100 µM; in [9], 66.2 µM; in experiment [10], 9.2 µM.

`O=C(c1ccccc1)c1ccc(N2C(=O)C3C4c5ccccc5C(/C=C/C(=O)c5ccccn5)(c5ccccc54)C3C2=O)cc1` (stereo not given): the GI50 is 1.77 µM in experiment [1]; 1.66 µM in experiment [2]; 2.67 µM in [3]; 3.43 µM in [4]; 1.56 µM in experiment [5]; 3.07 µM in experiment [6]. In addition, the GI50 in experiment [7] is 3.4 µM; in [8], 2.87 µM; in [9] it was 2.07 µM; in [10], 2.33 µM. The TGI in [1] is more than 100 µM; in [2], 4.02 µM; in [3], 9.23 µM; in experiment [4], more than 100 µM; in experiment [5] it was 3.51 µM; in [6], 15.4 µM. Further, the TGI in experiment [7] is more than 100 µM; in experiment [8] it was more than 100 µM; in experiment [9], 4.64 µM; in experiment [10], 6.48 µM.

Take `Cn1ncc2c(c1=O)Nc1ccccc1S2(=O)=O`: the TGI in experiment [1], in [2], in [3], in experiment [4], in experiment [5] and in experiment [6] was more than 100 µM each time. Moreover, the TGI in experiment [7], in [8], in experiment [9] and in experiment [10] was more than 100 µM each time.

Take `CN1OC(CO)CC12C1CC3CC(C1)CC2C3` (stereo not given): the TGI in experiment [1], in experiment [2], in experiment [3], in experiment [4], in [5] and in experiment [6] was more than 100 µM throughout. Also, the TGI in experiment [7], in experiment [8], in experiment [9] and in [10] was more than 100 µM throughout.
